{
  "source": "patent US11400138B2",
  "about": "“Method for improving skin condition with bioactive compound” (TCI CO., LTD., priority 2020, dated 2022)",
  "format_in_all_cases": "cell-based",
  "details_in_all_cases": "12.5 μg synthesized peptide per 1 mL cell culture medium, 24 h, 37° C.",
  "key": {"FBN1 gene": {"test_system": "FBN1 gene", "experiment": "FBN1 gene expression in human fibroblasts (CCD-966SK), qPCR", "protocol": "(§1) In order to confirm the effect of each of the amino acid sequences on gene expression in cells, human fibroblasts (CCD-966SK) and individual peptides were co-cultured, and then, gene expression in the cells was analyzed. 11 types of synthesized peptides were respectively subjected to cell experiments. In addition, the amino acid sequences of 11 types of synthesized peptides were respectively SEQ ID NO: 1, SEQ ID NO: 2, SEQ ID NO: 3, SEQ ID NO: 4, SEQ ID NO: 5, SEQ ID NO: 6, SEQ ID NO: 7, SEQ ID NO: 8, SEQ ID NO: 9, SEQ ID NO: 10 and SEQ ID NO: 11. Hereafter, the sequence numbers SEQ ID NO: 1 to SEQ ID NO: 11 will be referred to as groups.\n(§2) Cell gene expression test refers to that after the human fibroblasts (purchased from Food Industry Research and Development Institute) and samples to be tested (such as peptides or compositions) were co-cultured, then, RNA in the cells was collected for analysis. Referring to Table 3, the gene expression test groups were divided into 13 groups. 11 groups therein were peptide experiment groups (Experiment group A to Experiment group K), 1 group was a composition experiment group (Experiment group L), and 1 group was a control group. In addition, each group was co-cultured with 1×10^5 human fibroblasts in a cell culture plate containing 2 mL of cell culture medium (X-VIVO™ 10). Experiment group A to Experiment group K respectively corresponded to 11 groups of peptide experiment groups of 11 types of synthesized peptides (SEQ ID NO: 1, SEQ ID NO: 2, SEQ ID NO: 3, SEQ ID NO: 4, SEQ ID NO: 5, SEQ ID NO: 6, SEQ ID NO: 7, SEQ ID NO: 8, SEQ ID NO: 9, SEQ ID NO: 10 and SEQ ID NO: 11) prepared according to Example III. Experiment group L was a composition experiment group added with the composition. In addition, the composition was identified in Example II to be tilapia fish skin collagen peptide powder (purchased from LAPI, Italy) including […] of peptides (i.e., SEQ ID NO: 1, SEQ ID NO: 2, SEQ ID NO: 3, SEQ ID NO: 4, SEQ ID NO: 5 and SEQ ID NO: 6). No peptide or composition was added in Control group.\n(§3) For each group of peptide experiment groups (corresponding to Experiment group A to Experiment group K), according to a proportion of 12.5 μg of synthesized peptide per 1 mL of cell culture medium, the human fibroblasts were cultured for 24 h at 37° C. For the composition experiment group (corresponding to Experiment group L), according to a proportion of 100 mg of composition per 1 mL of cell culture medium, the human fibroblasts were cultured for 24 h. For Control group, no peptide was added, and the human fibroblasts were cultured for 24 h in a pure cell culture medium. In addition, after culture for 24 h, the peptide-containing cell culture medium or the pure culture medium was removed from each group, and cells in each group were washed by a phosphate buffer solution (PBS) so as to remove the residual culture medium. The washed cells were spun down and were subjected to cell lysis by a cell lysis solution (purchased from Geneaid company, Taiwan). Then, RNA in each group of cells was extracted by an RNA extraction kit (purchased from Geneaid company, Taiwan). Next, the extracted RNA was subjected to inverse transcription to obtain cDNA by a cDNA synthesis reagent (purchased from Geneaid company, Taiwan). In addition, the intracellular gene expression was observed by a polymerase chain reaction (PCR) instrument using different primers (as shown in Table 3). In addition, the primers firstly reacted by a green fluorescent dye of SYBR green dye (Applied Biosystem), and quantification of gene expression was performed by a 2-ΔΔCt method. It should be noted that the gene expression in the drawings corresponding to the experiments was shown in relative fold or percentage, wherein standard deviations were calculated by an STDEV formula of Excel software, and statistically significant differences were analyzed by one-tailed student t-test in the Excel software. […]"}, "LOX gene": {"test_system": "LOX gene", "experiment": "LOX gene expression in human fibroblasts (CCD-966SK), qPCR", "protocol": "as §1\nas §2, with “No peptide or composition was added in Control group.” left out\n(§4) For each group of peptide experiment groups (corresponding to Experiment group A to Experiment group K), according to a proportion of 12.5 μg of synthesized peptide per 1 mL of cell culture medium, the human fibroblasts were cultured for 24 h at 37° C. […] In addition, the primers firstly reacted by a green fluorescent dye of SYBR green dye (Applied Biosystem), and quantification of gene expression was performed by a 2-ΔΔCt method. It should be noted that the gene expression in the drawings corresponding to the experiments was shown in relative fold or percentage, wherein standard deviations were calculated by an STDEV formula of Excel software, and statistically significant differences were analyzed by one-tailed student t-test in the Excel software. […]"}, "TIMP1 gene": {"test_system": "TIMP1 gene", "experiment": "TIMP1 gene expression in human fibroblasts (CCD-966SK), qPCR", "protocol": "as §1, §2\nas §3, with “The washed cells were spun down and were subjected to cell lysis by a cell lysis solution (purchased from Geneaid company, Taiwan). Then, RNA in each group of cells was extracted by an RNA extraction kit (purchased from Geneaid company, Taiwan). Next, the extracted RNA was subjected to inverse transcription to obtain cDNA by a cDNA synthesis reagent (purchased from Geneaid company, Taiwan). In addition, the intracellular gene expression was observed by a polymerase chain reaction (PCR) instrument using different primers (as shown in Table 3).” left out"}, "MMP2 gene": {"test_system": "MMP2 gene", "experiment": "MMP2 gene expression in human fibroblasts (CCD-966SK), qPCR", "protocol": "as §1, with “groups. […]” for “groups.”\nas §4"}},
  "data": [
    {"substance": "AVNGLTLAGGRGLNTGAALT (listed as Oreochromis mossambicus) [SEQ ID NO: 5, synthesized peptide of tilapia skin, Collagen, type VI]", "values": [
      {"measurement": "FBN1 gene expression level, folds of Control group", "setting": "FBN1 gene", "value": "about 6 folds"},
      {"measurement": "LOX gene expression level, folds of Control group", "setting": "LOX gene", "value": "about 2.5 folds"}
    ]},
    {"substance": "QRGEPGPNGAV (listed as Oreochromis mossambicus) [SEQ ID NO: 11, synthesized peptide of tilapia skin, Procollagen, type I]", "values": [
      {"measurement": "FBN1 gene expression level, folds of Control group", "setting": "FBN1 gene", "value": "about 5 folds"},
      {"measurement": "LOX gene expression level, folds of Control group", "setting": "LOX gene", "value": "about 3 folds"},
      {"measurement": "TIMP1 gene expression level, folds of Control group", "setting": "TIMP1 gene", "value": "about 5 folds"}
    ]},
    {"substance": "PGPMGPMGINGA (listed as Oreochromis mossambicus) [SEQ ID NO: 4, synthesized peptide of tilapia skin, Collagen, type V]", "values": [
      {"measurement": "FBN1 gene expression level, folds of Control group", "setting": "FBN1 gene", "value": "about 16 folds"}
    ]},
    {"substance": "NGLPGSPGLP GRQGE (NGLPGSPGLPGRQGE; listed as Oreochromis mossambicus) [SEQ ID NO: 7, synthesized peptide of tilapia skin, Collagen, type XII]", "values": [
      {"measurement": "FBN1 gene expression level, folds of Control group", "setting": "FBN1 gene", "value": "about 5 folds"}
    ]},
    {"substance": "IGIFGQTGPPGE (listed as Oreochromis mossambicus) [SEQ ID NO: 3, synthesized peptide of tilapia skin, Collagen, type IV]", "values": [
      {"measurement": "FBN1 gene expression level, folds of Control group", "setting": "FBN1 gene", "value": "about 3 folds"},
      {"measurement": "MMP2 gene expression inhibition", "setting": "MMP2 gene", "value": "about 60%"},
      {"measurement": "MMP2 gene expression percentage (Control group regarded as 100%)", "setting": "MMP2 gene", "value": "about 40%"}
    ]},
    {"substance": "DQGIRLL (listed as Oreochromis mossambicus) [SEQ ID NO: 10, synthesized peptide of Plectin b]", "values": [
      {"measurement": "FBN1 gene expression level, folds of Control group", "setting": "FBN1 gene", "value": "about 6 folds"}
    ]},
    {"substance": "GLPGVQGNI (listed as Oreochromis mossambicus) [SEQ ID NO: 2, synthesized peptide of tilapia skin, Collagen, type IV]", "values": [
      {"measurement": "FBN1 gene expression level, folds of Control group", "setting": "FBN1 gene", "value": "about 6 folds"},
      {"measurement": "LOX gene expression level, folds of Control group", "setting": "LOX gene", "value": "about 5.7 folds"},
      {"measurement": "TIMP1 gene expression level, folds of Control group", "setting": "TIMP1 gene", "value": "about 7.8 folds"}
    ]},
    {"substance": "ALVQNREGP (listed as Oreochromis mossambicus) [SEQ ID NO: 6, synthesized peptide of tilapia skin, Collagen, type VII]", "values": [
      {"measurement": "FBN1 gene expression level, folds of Control group", "setting": "FBN1 gene", "value": "about 5 folds"},
      {"measurement": "TIMP1 gene expression level, folds of Control group", "setting": "TIMP1 gene", "value": "about 3 folds"}
    ]},
    {"substance": "MFGKDVW (listed as Oreochromis mossambicus) [SEQ ID NO: 9, synthesized peptide of N-acetylglucosamine-1-phosphotransferase subunits alpha/beta]", "values": [
      {"measurement": "FBN1 gene expression level, folds of Control group", "setting": "FBN1 gene", "value": "about 4 folds"},
      {"measurement": "LOX gene expression level, folds of Control group", "setting": "LOX gene", "value": "about 2.5 folds"},
      {"measurement": "TIMP1 gene expression level, folds of Control group", "setting": "TIMP1 gene", "value": "about 3 folds"}
    ]},
    {"substance": "PGQPGLSGVPGADGKPGLPGP (listed as Oreochromis mossambicus) [SEQ ID NO: 8, synthesized peptide of tilapia skin, Collagen, type XVIII]", "values": [
      {"measurement": "FBN1 gene expression level, folds of Control group", "setting": "FBN1 gene", "value": "about 9 folds"},
      {"measurement": "TIMP1 gene expression level, folds of Control group", "setting": "TIMP1 gene", "value": "about 5 folds"}
    ]}
  ]
}
